Experimental data as given in patent publication US11207291B2, “Antimicrobial compositions comprising cannabinoids and methods of using the same” (Graphium Biosciences, Inc., priority 2017, dated 2021).
Converted amounts (≈) assume the structure as drawn. Where two headings read alike, the source gives them in different places.

Legend:
Candida parapsilosis [1] = test: Broth microdilution MIC, yeast and fungi (Example 1); type: cell-based; details: Example 1, isolate MMX 2323 (ATCC 22019)
Aspergillus fumigatus [2] = test: Broth microdilution MIC, fungi (Example 4); type: cell-based; details: Example 4, isolate MMX 5280 (MYA-3626)
Aspergillus fumigatus [3] = test: Broth microdilution MIC, yeast and fungi (Example 1); type: cell-based; details: isolate MMX 5280 (ATCC MYA-3626)
Candida parapsilosis [4] = test: Broth microdilution MIC, fungi (Example 4); type: cell-based; details: Example 4, isolate MMX 2323 (ATCC 22019)
Aspergillus fumigatus [5] = details: ATCC MYA-3626; 48 hr; Example 1 table; cited from earlier work
Candida parapsilosis [6] = details: ATCC 22019, Example 1 table, cited from earlier work
Candida parapsilosis [7] = details: ATCC 22019, Example 4 table, cited from earlier work
Aspergillus fumigatus [8] = details: MYA-3626; 48 hr; Example 4 table; cited from earlier work

C[C@@H]1[C@H](O)[C@@H](C)/C=C/C=C/C=C/C=C/C=C/C=C/C=C/[C@H](O[C@@H]2O[C@H](C)[C@@H](O)[C@H](N)[C@@H]2O)C[C@@H]2O[C@](O)(C[C@@H](O)C[C@@H](O)[C@H](O)CC[C@@H](O)C[C@@H](O)CC(=O)O[C@H]1C)C[C@H](O)[C@H]2C(=O)O [Amphotericin B]
MIC at 24 hr (Candida parapsilosis [1]; 24 hr): 0.5 µg/mL (≈ 0.541 µM) | MIC at 48 hr (Candida parapsilosis [1]; 48 hr): 1 µg/mL (≈ 1.08 µM) | MIC at 24 hr (Aspergillus fumigatus [2]; 24 hr): 0.25 µg/mL (≈ 0.271 µM) | MIC at 48 hr (Aspergillus fumigatus [2]; 48 hr): 1 µg/mL (≈ 1.08 µM) | MIC at 24 hr (Aspergillus fumigatus [3]; 24 hr): 0.5, μg/mL | MIC at 48 hr (Aspergillus fumigatus [3]; 48 hr): 2 µg/mL (≈ 2.16 µM) | MIC at 24 hr (Candida parapsilosis [4]; 24 hr): 0.12 µg/mL (≈ 0.13 µM) | MIC at 48 hr (Candida parapsilosis [4]; 48 hr): 0.5 µg/mL (≈ 0.541 µM) | CLSI QC range (MIC) (Aspergillus fumigatus [5]): 0.5 to 4 µg/mL | CLSI QC range (MIC) (Candida parapsilosis [6]; 24 hr): 0.5 to 2 µg/mL | CLSI QC range (MIC) (Candida parapsilosis [6]; 48 hr): 0.25 to 4 µg/mL | CLSI QC range (MIC) (Candida parapsilosis [7]; 24 hr): (0.5-2)^3, μg/mL | CLSI QC range (MIC) (Candida parapsilosis [7]; 48 hr): (0.25-4)^3 μg/mL | CLSI QC range (MIC) (Aspergillus fumigatus [8]): (0.5-4)^3 μg/mL
